# Assay results published in the supplement of paper PMC10307832.
# Tests used:
# Test in all cases: relative viability (nuclei count vs DMSO), 5 days (fraction); higher = more cells survive
# [1] = compound: C1=CC2=C(C=C(C(=C2N=C1)O)N=NC3=CC4=C(C=C3)C=C(C=C4)S(=O)(=O)O)S(=O)(=O)O + Cc1cc(Nc2cc(N3CCN(C)CC3)nc(Sc3ccc(NC(=O)C4CC4)cc3)n2)n[nH]1 [Tozasertib] (partner 0.1 µM)
# Outline: (§1)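 Dosing by pin tool came one day after lung cancer cell lines were seeded in 1536-well plates, using either one drug or a fixed anchor-drug dose plus five library-drug doses (not always all listed) in √10 steps. After 5 days, nuclei were counted on 4× images. Relative viability is treated-well nuclei count divided by vehicle-well nuclei count, and values are medians of duplicate plates.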
# [2] = compound: C1=CC2=C(C=C(C(=C2N=C1)O)N=NC3=CC4=C(C=C3)C=C(C=C4)S(=O)(=O)O)S(=O)(=O)O + NC(=O)Nc1cc(-c2cccc(F)c2)sc1C(=O)N[C@H]1CCCNC1 [AZD7762] (partner 0.2 µM)
# Outline: as §1
# [3] = compound: C1=CC2=C(C=C(C(=C2N=C1)O)N=NC3=CC4=C(C=C3)C=C(C=C4)S(=O)(=O)O)S(=O)(=O)O + Nc1nc2[nH]cc(CCc3ccc(C(=O)N[C@@H](CCC(=O)O)C(=O)O)cc3)c2c(=O)[nH]1 [Pemetrexed] (partner 0.2 µM)
# Outline: as §1
# AT-7519 + Phenformin = compound: O=C(NC1CCNCC1)c1n[nH]cc1NC(=O)c1c(Cl)cccc1Cl [AT-7519] + N=C(N)NC(=N)NCCc1ccccc1 [Phenformin] (partner 250 µM)
# Outline: as §1
Cell Line,relative viability ([1]; first compound 0.08 µM),relative viability ([1]; first compound 0.253 µM),relative viability ([1]; first compound 0.8 µM),relative viability ([1]; first compound 2.53 µM),relative viability ([1]; first compound 8 µM),relative viability ([2]; first compound 0.08 µM),relative viability ([2]; first compound 0.253 µM),relative viability ([2]; first compound 0.8 µM),relative viability ([2]; first compound 2.53 µM),relative viability ([2]; first compound 8 µM),relative viability ([3]; first compound 0.08 µM),relative viability ([3]; first compound 0.253 µM),relative viability ([3]; first compound 0.8 µM),relative viability ([3]; first compound 2.53 µM),relative viability ([3]; first compound 8 µM),relative viability (AT-7519 + Phenformin; first compound 0.01 µM),relative viability (AT-7519 + Phenformin; first compound 0.03162 µM),relative viability (AT-7519 + Phenformin; first compound 0.3162 µM),relative viability (AT-7519 + Phenformin; first compound 1 µM)
NCI-H1734,0.263,0.249,0.261,0.289,0.238,0.633,0.558,0.566,0.527,0.566,0.387,0.43,0.417,0.421,0.443,0.385,0.342,0.323,0.175
NCI-H1755,0.608,0.539,0.555,0.615,0.577,0.535,0.419,0.361,0.457,0.459,0.526,0.418,0.459,0.489,0.425,0.638,0.633,0.608,0.546
NCI-H1793,0.436,0.301,0.395,0.449,0.396,0.411,0.407,0.481,0.497,0.455,1,0.844,0.799,0.841,0.888,0.354,0.457,0.434,0.387
NCI-H1915,0.471,0.445,0.463,0.436,0.437,0.735,0.706,0.661,0.688,0.679,0.523,0.464,0.473,0.461,0.446,0.365,0.384,0.345,0.376
NCI-H1944,0.263,0.241,0.263,0.241,0.237,0.643,0.647,0.746,0.519,0.464,0.61,0.559,0.57,0.634,0.395,0.234,0.207,0.197,0.182
NCI-H1975,0.772,0.753,0.754,0.736,0.686,0.715,0.69,0.671,0.748,0.702,0.315,0.297,0.302,0.29,0.303,0.382,0.408,0.274,0.155
NCI-H1993,0.576,0.576,0.581,0.56,0.548,0.906,0.712,0.702,0.845,0.832,0.511,0.539,0.6,0.589,0.617,0.544,0.574,0.528,0.439
NCI-H2085,0.928,0.742,0.784,0.886,0.813,0.874,1.03,0.902,0.971,0.969,0.923,0.864,0.846,0.903,0.92,0.744,0.7,0.759,0.53
NCI-H2087,0.237,0.258,0.238,0.237,0.267,1.31,1.51,1.27,1.38,1.29,0.643,0.599,0.567,0.602,0.7,0.472,0.442,0.479,0.172
NCI-H2126,0.911,0.824,0.843,0.938,0.792,1.05,0.971,0.941,0.939,0.994,0.671,0.641,0.689,0.723,0.75,0.552,0.494,0.491,0.33
NCI-H2170,0.678,0.714,0.753,0.774,0.638,1.02,1.04,0.89,1.01,0.914,0.288,0.281,0.284,0.266,0.251,0.412,0.414,0.423,0.418
NCI-H2342,0.52,0.576,0.566,0.465,0.569,0.603,0.541,0.463,0.462,0.582,0.82,0.791,0.766,0.807,0.765,0.595,0.605,0.509,0.512
NCI-H2347,0.59,0.57,0.52,0.741,0.573,0.838,0.734,0.846,1.01,0.705,0.44,0.474,0.444,0.403,0.343,0.281,0.388,0.582,0.185
NCI-H2405,0.894,0.811,0.782,0.82,0.711,0.898,0.784,0.738,0.77,0.732,1.1,1.08,0.976,1.11,0.982,0.375,0.39,0.35,0.32
NCI-H3122,0.371,0.37,0.405,0.514,0.378,0.967,0.976,0.975,1.03,0.962,0.194,0.201,0.202,0.189,0.182,0.405,0.37,0.325,0.13
PC-3 [JPC-3],0.963,0.848,0.846,0.856,0.864,0.899,0.808,0.817,0.778,0.71,1.07,1.03,1.04,1.16,0.999,0.471,0.474,0.45,0.484
